How the values were obtained:
Type in all cases: in vivo
[1] = test system: Echinochloa crus-galli var. formosensis; experiment: Test Example 5: herbicidal effect test by soil application in paddy rice (low dose); conditions: Echinochloa crus-galli, soil, 336 h; 7.5 g per 10 ares; applied immediately after sowing, flooded pots; 14 days after application; read-out: weed inhibition rate
Outline: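 Pots of puddled, fertilized paddy soil receive 30 seeds per species at 0–1 cm depth and are flooded to about 3 cm. The diluted emulsifiable concentrate is then dropped onto the water, delivering 7.5 g active ingredient per 10 ares. Greenhouse grown; herbicidal effect scored 14 days later, two replicates.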

[2] = test system: Echinochloa crus-galli var. formosensis; experiment: Test Example 1: herbicidal effect test by soil application in paddy rice; conditions: Echinochloa crus-galli, soil, 336 h; 120 g active ingredient per 10 ares; applied immediately after sowing, flooded pots; 14 days after application; read-out: weed inhibition rate
Outline: (§1)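 Treatment: 120 g active ingredient per 10 ares as a water-diluted emulsifiable concentrate, dropped onto flooded pots immediately after sowing. Thirty seeds per species went 0–1 cm into puddled paddy soil with 16:16:16 fertilizer, with ~3 cm flooding maintained in a glass greenhouse.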

Scirpus juncoides [3] = experiment: as above; conditions: Schoenoplectiella juncoides, soil, 336 h; 120 g active ingredient per 10 ares; applied immediately after sowing, flooded pots; 14 days after application; read-out: weed inhibition rate
Outline: as §1

Monochoria vaginalis [4] = experiment: as above; conditions: Pontederia vaginalis, soil, 336 h; 120 g active ingredient per 10 ares; applied immediately after sowing, flooded pots; 14 days after application; read-out: weed inhibition rate
Outline: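 Inhibition rate (%) read 14 days after treatment, duplicate pots. Water-diluted emulsifiable concentrate was applied by dropper at 120 g active ingredient/10 ares right after sowing. Seeds (30 per species, 0–1 cm deep) went into puddled paddy soil kept flooded at about 3 cm in a greenhouse.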

Echinochloa crus-galli = experiment: Test Example 4: herbicidal effect test by stem and leaf treatment in upland field; conditions: Echinochloa crus-galli; 120 g per 10 ares; sprayed seven days after sowing, upland soil; 14 days after application; read-out: weed inhibition rate
Monochoria vaginalis [5] = experiment: Test Example 5: herbicidal effect test by soil application in paddy rice (low dose); conditions: Pontederia vaginalis, 336 h, 7.5 g per 10 ares, applied immediately after sowing, flooded pots, 14 days after application, read-out: weed inhibition rate
Method: (§2) The present test was conducted in duplicate for each chemical concentration group, and the weed inhibition rate (%) was determined 14 days after chemical application using the following formula (Math. 1). [formula]
(§3) Wagner pots with an area of […] were filled with paddy soil, followed by addition of water and incorporation of chemical fertilizer (N:P:K = 16:16:16), after which puddling was performed. After that, seeds of Echinochloa crus-galli var. formosensis, broad-leaved weeds (Monochoria vaginalis), and Scirpus juncoides were sown at a depth of 0 cm to 1 cm, 30 seeds each. Immediately after sowing, the pots were flooded and a water depth of approximately 3 cm was maintained. Subsequent management was conducted in a glass greenhouse. Immediately thereafter, an emulsifiable concentrate prepared according to Formulation Example 5 using the compound shown below was diluted with water, and a specified amount of the diluted solution was applied by dropper. The amount of the active ingredient to be applied was equivalent to 7.5 g per 10 ares.
(§4) The present test was conducted in duplicate for each chemical concentration group, and the herbicidal effect was evaluated 14 days after chemical application using the same criteria as in Test Example 1.

Scirpus juncoides [6] = experiment: as above; conditions: Schoenoplectiella juncoides, 336 h, 7.5 g per 10 ares, applied immediately after sowing, flooded pots, 14 days after application, read-out: weed inhibition rate
Method: as §2, §3, §4

CC(C)[C@]12C[C@@H](OCc3cccc(F)c3F)[C@](C)(CC1=O)O2 [2-14, (1R,4S,5R)-5-((2,3-difluorobenzyl)oxy)-1-isopropyl-4-methyl-7-oxabicyclo[2.2.1]heptan-2-one]
≥ 80%: inhibition at 75 g/ha [1] | pest or weed control at 1200 g/ha [2] | pest or weed control at 1200 g/ha (Scirpus juncoides [3]) | pest or weed control at 1200 g/ha (Monochoria vaginalis [4]) | inhibition at 1200 g/ha (Echinochloa crus-galli) | inhibition at 75 g/ha (Monochoria vaginalis [5]) | inhibition at 75 g/ha (Scirpus juncoides [6])

CC(C)CC1C[C@]2(C)O[C@@]1(C(C)C)C[C@H]2OCc1ccccc1F (stereo partly drawn) [1-915, (1S,2R,4R)-2-((2-fluorobenzyl)oxy)-5-isobutyl-4-isopropyl-1-methyl-7-oxabicyclo[2.2.1]heptane]
≥ 80%: inhibition at 75 g/ha [1] | pest or weed control at 1200 g/ha [2] | pest or weed control at 1200 g/ha (Scirpus juncoides [3]) | pest or weed control at 1200 g/ha (Monochoria vaginalis [4]) | inhibition at 1200 g/ha (Echinochloa crus-galli) | inhibition at 75 g/ha (Scirpus juncoides [6])

CC(C)[C@]12C[C@@H](OCc3ccccc3F)[C@](C)(C[C@@H]1OS(=O)(=O)C(F)(F)F)O2 [1-525, (1R,2S,4S,5R)-5-((2-fluorobenzyl)oxy)-1-isopropyl-4-methyl-7-oxabicyclo[2.2.1]heptan-2-yl trifluoromethanesulfonate]
≥ 80%: inhibition at 75 g/ha [1] | pest or weed control at 1200 g/ha [2] | pest or weed control at 1200 g/ha (Scirpus juncoides [3]) | pest or weed control at 1200 g/ha (Monochoria vaginalis [4]) | inhibition at 1200 g/ha (Echinochloa crus-galli)

CC(C)[C@]12C[C@@H](OCc3ccccc3F)[C@](C)(C[C@@H]1OCC1CC1)O2 [1-1603, (1S,2R,4R,5S)-5-(cyclopropylmethoxy)-2-[(2-fluorophenyl)methoxy]-1-methyl-4-isopropyl-7-oxabicyclo[2.2.1]heptane]
≥ 80%: inhibition at 75 g/ha [1] | pest or weed control at 1200 g/ha [2] | pest or weed control at 1200 g/ha (Scirpus juncoides [3]) | pest or weed control at 1200 g/ha (Monochoria vaginalis [4]) | inhibition at 1200 g/ha (Echinochloa crus-galli) | inhibition at 75 g/ha (Monochoria vaginalis [5]) | inhibition at 75 g/ha (Scirpus juncoides [6])

Cc1cccc(CO[C@@H]2C[C@]3(C(C)C)O[C@@]2(C)C[C@@H]3Br)c1 [1-680, (1S,2R,4R,5S)-5-bromo-1-methyl-2-[(3-methylphenyl)methoxy]-4-isopropyl-7-oxabicyclo[2.2.1]heptane]
≥ 80%: inhibition at 75 g/ha [1] | pest or weed control at 1200 g/ha [2] | pest or weed control at 1200 g/ha (Scirpus juncoides [3]) | pest or weed control at 1200 g/ha (Monochoria vaginalis [4]) | inhibition at 1200 g/ha (Echinochloa crus-galli)

CC(C)[C@]12C[C@@H](OCc3cc(F)ccc3F)[C@](C)(CC1=O)O2 [2-18, (1R,4S,5R)-5-((2,5-difluorobenzyl)oxy)-1-isopropyl-4-methyl-7-oxabicyclo[2.2.1]heptan-2-one]
≥ 80%: inhibition at 75 g/ha [1] | pest or weed control at 1200 g/ha [2] | pest or weed control at 1200 g/ha (Scirpus juncoides [3]) | inhibition at 1200 g/ha (Echinochloa crus-galli)

CC(C)[C@]12C[C@@H](OCc3c(Cl)cccc3Cl)[C@](C)(CC1=O)O2 [2-26, (1R,4S,5R)-5-((2,6-dichlorobenzyl)oxy)-1-isopropyl-4-methyl-7-oxabicyclo[2.2.1]heptan-2-one]
≥ 80%: inhibition at 75 g/ha [1] | pest or weed control at 1200 g/ha [2] | pest or weed control at 1200 g/ha (Scirpus juncoides [3]) | pest or weed control at 1200 g/ha (Monochoria vaginalis [4]) | inhibition at 1200 g/ha (Echinochloa crus-galli)

Cc1ccccc1CO[C@@H]1C[C@]2(C(C)C)O[C@@]1(C)C[C@@H]2Br [1-16, (1S,2R,4R,5S)-5-bromo-1-methyl-2-[(2-methylphenyl)methoxy]-4-isopropyl-7-oxabicyclo[2.2.1]heptane]
≥ 80%: inhibition at 75 g/ha [1] | pest or weed control at 1200 g/ha [2] | pest or weed control at 1200 g/ha (Scirpus juncoides [3]) | pest or weed control at 1200 g/ha (Monochoria vaginalis [4]) | inhibition at 1200 g/ha (Echinochloa crus-galli)

Cc1cccc(C)c1CO[C@@H]1C[C@]2(C(C)C)O[C@@]1(C)CC2=O [2-5, (1R,4S,5R)-5-((2,6-dimethylbenzyl)oxy)-1-isopropyl-4-methyl-7-oxabicyclo[2.2.1]heptan-2-one]
≥ 80%: inhibition at 75 g/ha [1] | pest or weed control at 1200 g/ha [2] | pest or weed control at 1200 g/ha (Scirpus juncoides [3]) | pest or weed control at 1200 g/ha (Monochoria vaginalis [4]) | inhibition at 1200 g/ha (Echinochloa crus-galli) | inhibition at 75 g/ha (Monochoria vaginalis [5]) | inhibition at 75 g/ha (Scirpus juncoides [6])

Cc1cccc(C)c1CO[C@@H]1C[C@@]2(C(C)C)C=C[C@]1(C)O2 [3-3, (1R,4S,5R)-5-[(2,6-dimethylphenyl)methoxy]-4-methyl-1-isopropyl-7-oxabicyclo[2.2.1]hept-2-ene]
≥ 80%: inhibition at 75 g/ha [1] | pest or weed control at 1200 g/ha [2] | pest or weed control at 1200 g/ha (Scirpus juncoides [3]) | pest or weed control at 1200 g/ha (Monochoria vaginalis [4]) | inhibition at 1200 g/ha (Echinochloa crus-galli) | inhibition at 75 g/ha (Monochoria vaginalis [5]) | inhibition at 75 g/ha (Scirpus juncoides [6])

CC(C)[C@]12C[C@@H](OCc3cccc(Cl)c3)[C@](C)(C[C@@H]1Br)O2 [1-692, (1S,2R,4R,5S)-5-bromo-2-[(3-chlorophenyl)methoxy]-1-methyl-4-isopropyl-7-oxabicyclo[2.2.1]heptane]
≥ 80%: inhibition at 75 g/ha [1] | pest or weed control at 1200 g/ha [2] | pest or weed control at 1200 g/ha (Scirpus juncoides [3]) | pest or weed control at 1200 g/ha (Monochoria vaginalis [4]) | inhibition at 1200 g/ha (Echinochloa crus-galli) | inhibition at 75 g/ha (Monochoria vaginalis [5]) | inhibition at 75 g/ha (Scirpus juncoides [6])

COC1(OC)C[C@]2(C)O[C@@]1(C(C)C)C[C@H]2OCc1ccccc1F [1-935, (1R,4S,5R)-5-((2-fluorobenzyl)oxy)-1-isopropyl-2,2-dimethoxy-4-methyl-7-oxabicyclo[2.2.1]heptane]
≥ 80%: inhibition at 75 g/ha [1] | pest or weed control at 1200 g/ha [2] | pest or weed control at 1200 g/ha (Scirpus juncoides [3]) | pest or weed control at 1200 g/ha (Monochoria vaginalis [4]) | inhibition at 1200 g/ha (Echinochloa crus-galli)

CC(C)[C@]12C[C@@H](OCc3ccc(Cl)cc3)[C@](C)(C[C@@H]1Br)O2 [1-693, (1S,2R,4R,5S)-5-bromo-2-[(4-chlorophenyl)methoxy]-1-methyl-4-isopropyl-7-oxabicyclo[2.2.1]heptane]
≥ 80%: inhibition at 75 g/ha [1] | pest or weed control at 1200 g/ha [2] | pest or weed control at 1200 g/ha (Scirpus juncoides [3]) | pest or weed control at 1200 g/ha (Monochoria vaginalis [4]) | inhibition at 1200 g/ha (Echinochloa crus-galli)

CC(C)[C@]12C[C@@H](OCc3ccc(Cl)cc3Cl)[C@](C)(C[C@@H]1Br)O2 [1-717, (1S,2R,4R,5S)-5-bromo-2-[(2,4-dichlorophenyl)methoxy]-1-methyl-4-isopropyl-7-oxabicyclo[2.2.1]heptane]
≥ 80%: inhibition at 75 g/ha [1] | pest or weed control at 1200 g/ha [2] | pest or weed control at 1200 g/ha (Scirpus juncoides [3]) | pest or weed control at 1200 g/ha (Monochoria vaginalis [4]) | inhibition at 1200 g/ha (Echinochloa crus-galli)

Cc1ccccc1CO[C@@H]1C[C@]2(C(C)C)O[C@@]1(C)C[C@@H]2I [1-741, (1S,2R,4R,5S)-5-iodo-1-methyl-2-[(2-methylphenyl)methoxy]-4-isopropyl-7-oxabicyclo[2.2.1]heptane]
≥ 80%: inhibition at 75 g/ha [1] | pest or weed control at 1200 g/ha [2] | pest or weed control at 1200 g/ha (Scirpus juncoides [3]) | pest or weed control at 1200 g/ha (Monochoria vaginalis [4]) | inhibition at 1200 g/ha (Echinochloa crus-galli) | inhibition at 75 g/ha (Monochoria vaginalis [5]) | inhibition at 75 g/ha (Scirpus juncoides [6])

— EP4707280A1, “1,4-CINEOLE DERIVATIVE AND INTERMEDIATE THEREOF, HERBICIDE CONTAINING SAID DERIVATIVE AS ACTIVE INGREDIENT, METHOD FOR USING HERBICIDE, AND METHOD FOR PREPARING AGROCHEMICAL COMPOSITION” (HOKKO CHEMICAL INDUSTRY CO., LTD., priority 2023, dated 2024)
